Here are results for two molecules from PMC8261488, “Contraceptive progestins with androgenic properties stimulate breast epithelial cell proliferation” (EMBO Molecular Medicine, 2021).

Series [1] has as its system human breast tissue microstructures (EpCAM+ cells). Kind of series: RNA sequencing of EpCAM+ cells from human breast tissue microstructures stimulated ex vivo. It counts as cell-based. The following applies: 14–18 h exposure, n = 3. The source says:
Having ascertained with mammary tissue from inbred mice that androgenic and anti‐androgenic progestins have different effects on the expression of important PR target genes, we set out to assess the transcriptional response to PR signaling in the human breast epithelium. In view of our goal to perform in vivo experiments with the natural ligand progesterone, we compared the effects of progesterone to those of its stable analog R5020 which is commonly used for in vitro experiments on breast epithelial cells. For this, we used an ex vivo approach with human breast tissue similar to the mouse organoid technique used above that maintains hormone responsiveness (Tanos et al, 2013; Sflomos et al, 2015). In brief, 3 fresh mammoplasty tissue from women with follicular phase progesterone levels were cut into 1 mm^3 pieces and aliquoted for digestion with collagenase and concomitant exposure to either vehicle, R5020, or progesterone for 14–18 h. Tissue microstructures that contain epithelial cells, immune cells, and fibroblasts in varying proportions were recovered. To reduce interpatient variation as far as it relates to different ratios of various cell types, at the end of the treatment, the tissue microstructures were dissociated to single cells and enriched for epithelial cells by FACS sorting with antibodies against the epithelial cell surface marker EpCAM (Fig 2A). The EpCAM^+ cells were processed for RNA sequencing. […] Progesterone affected expression levels of 65 genes, whereas R5020 affected 112 genes, including RANKL (adj.P < 0.05) (Appendix Fig S2A). More than 90% of the progesterone‐induced gene expression changes were induced by R5020 (Fig 2C). […] R5020 induced higher‐fold changes as indicated by the estimated slope of the curve being > 1 (P < 0.0001). […]
All experiments conformed to the principles set out in the WMA Declaration of Helsinki and the Department of Health and Human Services Belmont Report. […] Human tissue samples were mechanically and enzymatically dissociated, single cells were prepared, counted, and spin infected using Lenti‐ONE CMV‐GFP(2A)Luc2 WPRE VSV, V621004001, or pR980 Luc2GFP (GEGTECH) at a multiplicity of infection of 1 at 2.500 rpm for 3 h at room temperature in 500 μl of serum‐free medium. […]
RNAseq libraries were prepared using Truseq Stranded RNA producing single‐end reads of 100 bp and sequenced on Illumina Hiseq 2500 instrument. […]
Sequencing reads were quality controlled using FastQC (v0.11.8) (Wingett & Andrews, 2018). Mouse raw reads were aligned to the mouse genome (mm9) and human raw reads to the human genome (hg19) using TopHat (v2.0.11) (Kim et al, 2013). […]

The test system of series [2] is HBECs. Kind of series: MKI67/Ki67 expression in xenografted HBECs. It counts as in vivo, human. The following applies: 21 days pellets; for cell proliferation (KI67 and hECAD double+ cells), overall analysis: HBECs from 11 different patients; for cell proliferation (KI67 and hECAD double+ cells): one mammoplasty (M310). The source says:
(§1) Next, we sought for a readout of in vivo cell proliferation different from radiance. […] Given that MKI67 expression could replace the luciferase measurements as a readout, we used a modified experimental setup for a second round of experiments. We derived HBECs from viably frozen mammoplasty samples (Appendix Table S3) and engrafted them to different mammary glands of NSG females without viral infection. Four months later, the 24 recipient females, each engrafted with 5 different mammoplasties received pellets containing either vehicle, progesterone, or 1 of 6 progestins for 21 days. At sacrifice, xenografted glands were histologically sectioned and cell proliferation was quantified using co‐IF with anti‐MKI67 and anti‐hECAD antibodies. For one of the mammoplasties, we were able to obtain measurements for all experimental conditions (Fig 5I). […] For the remaining mammoplasties, between 3 and 8 different experimental conditions were successfully quantified (Appendix Table S4). […] CPA (P < 0.0001) decreased proliferation, whereas CMA and DSP had no effect (Fig 5K). As AR signaling increases AR protein levels, we performed co‐IF for AR and hECAD as another means to assess AR signaling activity.
(§2) Tissues were fixed for 2 h at room temperature in 4% paraformaldehyde and paraffin‐embedded. Dewaxed and rehydrated paraffin sections were pretreated in 10 mM Na citrate (pH 6.0) at 95° for 20 min. Blocking was performed with 1% BSA for 60 min. Primary antibodies used were as follows: Ki67 (rabbit α‐Ki67, clone Sp6, Spring Amsbio, dilution 1:200), ER (rabbit α‐ER, clone Sp1, Zytomed RTU), PR (rabbit α‐PR, clone 1E2, Ventana RTU), AR (rabbit α‐AR, clone SP107, Thermo Fisher, diluted 1:200), CK7 (rabbit α‐CK7, clone Sp52, Abcam, diluted 1:500), CK19 (mouse KS19.2 (Z105.6), American Research Products Inc. (diluted 1:50), and mouse α‐ECAD (clone G‐10, sc‐8426, diluted 1:100). For IHC, chromogenic revelation was performed with ChromoMap DAB kit (Roche Diagnostics, Switzerland) and sections were counterstained with Mayer’s hematoxylin. For fluorescence microscopy, nuclei were counterstained with DAPI (Sigma). IHC for ER, PR, and AR was performed on Discovery Ventana ULTRA (44). IHC images were acquired on Leica DM 2000 with Leica DFC450 C camera. IF images were acquired on Zeiss LSM700 confocal microscope. Slides were scanned with Olympus VS120‐L100 slide scanner with 20×/0.75 objective and Pike F505 C Color camera. Images were loaded into QuPath using the BioFormats extension (Bankhead et al, 2017).
Background: Xenograft models place foreign cells or tissue in a host animal.

Series [3] deals with AR. Briefly: Percentage of AR+ cells in xenografted HBECs by co-IF for AR and hECAD. It counts as in vivo, human. To be noted: 21 days pellets, HBECs from 11 different patients.
From the text: as §1, §2

The conditions of series [4]: NSG, mouse, in vivo.
Procedure: At sacrifice, blood was collected and plasma levels of the administered compounds as well as endogenous steroid hormones were determined by liquid chromatography‐mass spectrometry (LC‐MS) (Laszlo et al, 2019).
Plasma steroid concentrations were measured by LC–MS High Resolution (Q‐Executive, Thermo Fisher Scientific) for testosterone, progesterone, and 17β‐estradiol as described in (Cagnet et al, 2018) and for progestins as described in (Laszlo et al, 2019).
The subject of another series is women. The following applies: cited from earlier work.
Series [5] deals with HBECs. Briefly: In vivo growth of intraductal HBEC xenografts measured by radiance.
From the text: To compare the effects of progesterone and different progestins on HBECs in vivo, we infected single cell suspensions obtained from fresh reduction mammoplasty specimens with GFP‐luciferase2‐expressing lentiviruses. The infected cell mixture was grafted intraductally to up to 5 glands of as many recipients as possible. The engraftment and growth of the xenografted cells were monitored weekly by in vivo imaging. When radiance reached > 10E07 on average per mammary gland, 60‐day‐release pellets were implanted subcutaneously, usually within 3–10 weeks after cell injection. At sacrifice, blood was collected and plasma levels of the administered compounds as well as endogenous steroid hormones were determined by liquid chromatography‐mass spectrometry (LC‐MS) (Laszlo et al, 2019).
Next, the in vivo growth of HBEC xenografts stimulated with progesterone or different progestins was analyzed. […] In addition, the fold change radiance of treated versus untreated samples at endpoint was calculated (Fig 5A–C).
(§3) Mice were anesthetized by intraperitoneal injection with 10 mg/kg xylazine and 90 mg/kg ketamine (Graeub) and injected intraductally with 10 μl cell suspension per gland. Bioluminescence imaging was performed as described (Sflomos et al, 2016). After 3–10 weeks, when bioluminescence from individual glands reached 10^7 total flux (p/s/cm2/sr), animals were assigned to different treatment groups and hormone pellets implanted subcutaneously. Enzalutamide (Selleckchem, Catalog No. S1250) dissolved in 15% DMSO in PEG300 was injected intraperitoneally 3 times/week at 30 mg/kg.
Pellets were prepared by mixing the required amount of part A, MP3745/E81949 and part B, MP3744/E81950 of low consistency silicon elastomer (MED‐4011) and hormone powder to homogeneity. Mix was transferred to a syringe and incubated at 37°C overnight. The silicon‐hormone mass was removed from the syringe and cut to pieces, as described (Duss et al, 2007). The original protocol was adapted for different doses as described below.
The test system of a further series is Rankl. Briefly: Rankl transcript levels by RT-PCR in mouse mammary organoids stimulated ex vivo. It counts as cell-based.
The next series concerns Wnt4. Kind of series: Wnt4 transcript levels by RT-PCR in mouse mammary organoids stimulated ex vivo. It counts as cell-based.
Series [6] relates to endogenous hormone levels in mice. Kind of series: Endogenous steroid hormone plasma levels in treated host mice by LC-MS. It counts as in vivo, mouse. To be noted: xenografted NSG females with pellets. The source says: Next, we assessed whether progesterone and progestins differentially affected endogenous hormone levels in mice. Plasma 17‐β‐estradiol levels were not affected by any of the treatments (Fig 4H). […] Plasma testosterone levels were not altered by any treatment with the exception of DSP, which decreased them (Fig 4H). Thus, prolonged exposures to progestins differentially affect endogenous progesterone plasma levels and DSP decreases testosterone plasma levels in host mice.

The subject of a further series is KLK3. Kind of series: KLK3 mRNA in xenografted HBECs by RT-PCR with human-specific primers. It counts as in vivo. The following applies: 3 weeks of treatment (Fig 5H).
From the text: Consistent with AR and PR sharing a common hormone response element (Claessens et al, 1996), KLK3 was induced upon progestin stimulation. […] This is in agreement with previous findings that KLK3 expression is under the control of both androgens and progestins in T47D cells (Zarghami et al, 1997).
as §1
Human breast microstructures and mouse organoids were homogenized in Trizol (Invitrogen). Aqueous phase containing RNA was chloroform extracted and processed with miRNeasy extraction kit (Qiagen). cDNA was synthesized using random p(dN)6 primers (Roche) and MMLV reverse transcriptase (Invitrogen). SYBR Green PCR Core Reagent System (Qiagen) was used for semi‐quantitative real time (RT‐PCR) using the following primers.

Series [7] has as its system HBECs. Kind of series: In vivo growth of HBEC xenografts treated with LNG with or without enzalutamide. The following applies: 3 PDXs, radiance. Also on record: species or system human.
Procedure: Mice were anesthetized by intraperitoneal injection with 10 mg/kg xylazine and 90 mg/kg ketamine (Graeub) and injected intraductally with 10 μl cell suspension per gland. […] After 3–10 weeks, when bioluminescence from individual glands reached 10^7 total flux (p/s/cm2/sr), animals were assigned to different treatment groups and hormone pellets implanted subcutaneously. Enzalutamide (Selleckchem, Catalog No. S1250) dissolved in 15% DMSO in PEG300 was injected intraperitoneally 3 times/week at 30 mg/kg.
Series [8] concerns AR. Briefly: In vivo growth of LNG-treated HBEC xenografts transduced with shAR or sh scramble. Also on record: species or system human. The following applies: within 60 days. The source says: To further test the requirement for AR in the context of progestin‐driven proliferation, we took a genetic approach and down modulated AR expression in freshly isolated HBECs using a GFP‐luciferase2‐shAR or GFP‐luciferase2‐sh scramble expressing lentivirus. […] Double IF with anti‐GFP and anti‐AR antibodies and analysis by image quantification confirmed the down regulation of AR protein levels in the shAR infected cells identified based on GFP co‐expression (Fig 7E and F).

Another series relates to human breast epithelium. The following applies: female, mouse, in vivo, 8 months.
Series [9] relates to HBECs. Briefly: MKI67/Ki67 expression in xenografted HBECs. To be noted: 3 weeks of treatment, at endpoint. It counts as in vivo, human.
The test system of series [10] is AR. Also on record: method as in earlier work. To be noted: various assays, ref Fuhrmann et al, 1995, Muhn et al, Bouchard, 2005, Mishell, 2008, Schneider et al, 2009, Africander et al, 2011, Louw‐du Toit et al, 2017; cited from earlier work.
The mark [11] stands for this setting: 60 days of treatment, subcutaneous pellets.
The mark [12] stands for this setting: BalbC females, 6 h of stimulation.
[13] abbreviates: BalbC-derived organoids, 24 h of stimulation.

Procedure for human breast epithelium: All the engrafted glands were processed for histological analysis and H&E stained.
as §3

Consider `CC(=O)[C@H]1CC[C@H]2[C@@H]3CCC4=CC(=O)CC[C@]4(C)[C@H]3CC[C@]12C` [progesterone], for which, in [1], the “RANKL expression (variant stabilized gene expression values)” value is on record as “increased expression” and the “WNT4 expression (variant stabilized gene expression values)” value is recorded as “increased expression”. In addition, in the series with HBECs [2], the “cell proliferation (KI67 and hECAD double+ cells), overall analysis” value is listed as “increased”; the “cell proliferation (KI67 and hECAD double+ cells)” value was “significantly increased”. The “percentage of AR+ cells (AR index)” value with AR [3] is recorded as “decreased”. Moreover, the “plasma progesterone relative to average levels in control mice” value in series [4] is 4.9 times. The “association with breast cancer risk” value in the series on women was “not associated with breast cancer risk”. Moreover, in the series on HBECs [5] (setting [11]), the “growth (course of radiance) of engrafted HBECs versus control” value is on record as “increased” and the “relative radiance at endpoint over control (FC)” value came out at 1.3 fold.

As for `C#C[C@]1(O)CC[C@H]2[C@@H]3CCC4=CC(=O)CC[C@@H]4[C@H]3CC[C@@]21CC` [LNG, levonorgestrel], the “Rankl transcript levels over vehicle-treated control” value in the series on Rankl (setting [12]) amounted to 27.7 fold. Moreover, the Rankl transcript induction in the series on Rankl (setting [13]) was 253.9 fold. Further, the Rankl transcript induction in the series with Rankl (C57Bl/6 mice, 6 h, 20 nM) came to 21.6 fold. Besides, the “Wnt4 transcript levels over vehicle-treated control” value in the series with Wnt4 (setting [12]) was found to be 4.8 fold. In the series on Wnt4 (setting [13]), the Wnt4 transcript induction is on record as 36.3 fold. Besides, the Wnt4 transcript induction in the series with Wnt4 (C57Bl/6 mice, 6 h, 20 nM) is given as 4.3 fold. Moreover, the “endogenous progesterone plasma levels (estrous cycle-related variation)” value in [6] was “did not affect”. Besides, the KLK3 transcript expression entry in the series with KLK3 is “increased”. Further, in the series on HBECs [2], the “cell proliferation (KI67 and hECAD double+ cells), overall analysis” value is given as “increased”; the “cell proliferation (KI67 and hECAD double+ cells)” value was “significantly increased”. Moreover, the “proliferation rates of PDXs upon LNG exposure” value in the series on HBECs [7] is “increased the proliferation rates in 2 of 3 PDXs”. Besides, the “reduction of LNG-induced radiance by down regulation of AR expression (shAR)” value in the series on AR [8] stood at 22%. Moreover, the “morphologic changes in xenografts (H&E)” value with human breast epithelium is 3 or 4 grafts showed diffuse and in some cases marked acinar proliferation. Moreover, in the series with HBECs [9], the “MKI67 expression at mRNA level” value was “increased” and the “MKI67 expression at protein level” value is on record as “increased”. The “androgenic / anti-androgenic activity” value with AR [10] was “androgenic activity”. Moreover, the breast cancer risk result with women (women taking androgenic progestins, ref Rossouw et al, 2002) is “elevated breast cancer risk”. For the same molecule, in the series with women (women, ref Hunter et al, 2010), the “RR of breast cancer” value is 3.05 and the “lobular breast cancer risk compared to the general population” value is 1.45. Also, the “RR for ductal breast cancer” value with women (women, ref Soini et al, 2016) is given as 1.20. Moreover, the “cell proliferation by radiance measurements” value in the series with HBECs [5] (3 weeks of treatment, mammoplasty M354) is “stimulated cell proliferation”. The “growth (course of radiance) of engrafted HBECs versus control” value in the series on HBECs [5] (setting [11]) was “increased growth”.
